For 24 compounds, IC50 results are on record in patent US12509444B2, “Compounds and methods for CD73 modulation and indications therefor” (Plexxikon Inc., priority 2019, dated 2025).

One test addresses T1, human CD73 (Homo sapiens, UniProt P21589).
T1 construct: expressed in transfected cells
T1 sequence (P21589 27-549): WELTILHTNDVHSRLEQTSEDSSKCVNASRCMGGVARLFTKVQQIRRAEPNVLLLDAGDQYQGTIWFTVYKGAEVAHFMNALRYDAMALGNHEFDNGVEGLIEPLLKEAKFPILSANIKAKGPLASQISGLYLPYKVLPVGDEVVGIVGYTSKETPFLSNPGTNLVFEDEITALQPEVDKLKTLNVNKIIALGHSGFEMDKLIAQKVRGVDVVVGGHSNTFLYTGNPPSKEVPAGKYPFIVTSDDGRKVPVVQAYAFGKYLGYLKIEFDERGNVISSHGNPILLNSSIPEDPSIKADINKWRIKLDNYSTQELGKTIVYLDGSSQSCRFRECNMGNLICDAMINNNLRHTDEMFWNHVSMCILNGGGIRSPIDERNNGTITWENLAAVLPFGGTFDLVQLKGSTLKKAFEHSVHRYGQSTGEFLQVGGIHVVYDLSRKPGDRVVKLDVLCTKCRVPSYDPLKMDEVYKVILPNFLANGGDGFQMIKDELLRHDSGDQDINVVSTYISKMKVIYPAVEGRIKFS
Description: Inhibitor activity against CD73 in cell based assay (CD73 expressing CHO-K1 cells). Conditions: CHO-K1 cells expressing human CD73, 150 μM AMP, 4 hours of incubation; read-out: CHO-K1 CELL VARIANT: CD73 IC50. The gist of the method:
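Residual supernatant AMP was quantified via CellTiter-Glo luminescence (1 μM ATP added, 30 min, room temperature) after a 4 h exposure of human CD73-expressing CHO-K1 cells to 150 μM AMP plus compound, top final 10 μM, 8 points. IC50 came from nonlinear regression of percent inhibition.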

The target in test [1] is T2, Human CD73 (amino acid residues 27-549) (Homo sapiens, UniProt P21589).
T2 construct: Human CD73 (amino acid residues 27-549); His tag (N); made in house; host or cells: E. coli
T2 sequence (P21589 27-549): T1 sequence (P21589 27-549)
Kind of test: CD73 enzymatic assay (luciferase-based indirect assay, CellTiter-Glo). To be noted: 0.4 nM CD73, 150 μM AMP, 1 hour at room temperature. It counts as biochemical. The essentials:
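Residual AMP inhibits luciferase, so luminescence reports CD73 turnover; read with CellTiter-Glo 2.0 plus 1 μM final ATP, 30 min. Reaction used 0.4 nM N-His CD73 (27-549, E. coli), 150 μM AMP, HEPES pH 7.4 with Tween 20, 1 h at room temperature. IC50 fitted by nonlinear regression.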

The term IC50 denotes the concentration that inhibits the measured activity by half. Turning to `O=C(NC1CCC(F)(F)CC1)O[C@H]1CN(c2cn[nH]c(=O)c2Cl)C[C@@H]1F` [P-0463, (3S,4S)-1-(5-chloro-6-oxo-1,6-dihydropyridazin-4-yl)-4-fluoropyrrolidin-3-yl (4,4-difluorocyclohexyl)carbamate], the IC50 (on human CD73; in test [1]) was 0.001 to 10 µM in each case.

In the case of `O=C(NC1CCN(C(=O)C2(c3ccccc3)CC2)CC1)O[C@@H]1CCN(c2cn[nH]c(=O)c2Cl)C1` [P-0464, (R)-1-(5-chloro-6-oxo-1,6-dihydropyridazin-4-yl)pyrrolidin-3-yl (1-(1-phenylcyclopropane-1-carbonyl)piperidin-4-yl)carbamate], the IC50 (on human CD73; in test [1]) was 0.001 to 10 µM throughout.

As to `O=C(NC1CCN(C(=O)C2(c3cccc(Br)c3)CC2)CC1)O[C@@H]1CCN(c2cn[nH]c(=O)c2Cl)C1` [P-0465, (R)-1-(5-chloro-6-oxo-1,6-dihydropyridazin-4-yl)pyrrolidin-3-yl (1-(1-(3-bromophenyl)cyclopropane-1-carbonyl)piperidin-4-yl)carbamate], the concentration for half-maximal inhibition (IC50) (at human CD73; in test [1]) was 0.001 to 10 µM each time.

With `Cc1noc(C)c1CC(=O)N1CCC(NC(=O)O[C@@H]2CCN(c3cn[nH]c(=O)c3Cl)C2)CC1` [P-0466, (R)-1-(5-chloro-6-oxo-1,6-dihydropyridazin-4-yl)pyrrolidin-3-yl (1-(2-(3,5-dimethylisoxazol-4-yl)acetyl)piperidin-4-yl)carbamate], the IC50 (on human CD73; in test [1]) was 0.001 to 10 µM in each case.

With `O=C(N[C@@H]1CCC(F)(F)C1)O[C@@H]1CCN(c2cnn(CCO)c(=O)c2Cl)C1` [P-0467, (R)-1-(5-chloro-1-(2-hydroxyethyl)-6-oxo-1,6-dihydropyridazin-4-yl)pyrrolidin-3-yl ((R)-3,3-difluorocyclopentyl)carbamate], the concentration for half-maximal inhibition (IC50) (on human CD73; in test [1]) was 0.001 to 10 µM throughout.

With `NCCn1ncc(N2CC[C@@H](OC(=O)N[C@@H]3CCC(F)(F)C3)C2)c(Cl)c1=O` [P-0468, (R)-1-(1-(2-aminoethyl)-5-chloro-6-oxo-1,6-dihydropyridazin-4-yl)pyrrolidin-3-yl ((R)-3,3-difluorocyclopentyl)carbamate], the IC50 (on human CD73; in test [1]) was 0.001 to 10 µM each time.

`O=C(N[C@@H]1CCC[C@H]1C(=O)O)O[C@@H]1CCN(c2cn[nH]c(=O)c2Cl)C1` [P-0469, (1R,2R)-2-(((((R)-1-(5-chloro-6-oxo-1,6-dihydropyridazin-4-yl)pyrrolidin-3-yl)oxy)carbonyl)amino) cyclopentane-1-carboxylic acid]: the IC50 (at human CD73; in test [1]) was 0.001 to 10 µM each time.

On to `O=C(N[C@H]1CCC[C@@H]1O)O[C@@H]1CCN(c2cn[nH]c(=O)c2Cl)C1` [P-0471, (R)-1-(5-chloro-6-oxo-1,6-dihydropyridazin-4-yl)pyrrolidin-3-yl ((1S,2S)-2-hydroxycyclopentyl)carbamate], for which the half-maximal inhibitory concentration (IC50) (on human CD73; in test [1]) was 0.001 to 10 µM in each case.

In the case of `CC(C)(C(=O)N1CCC(NC(=O)O[C@@H]2CCN(c3cn[nH]c(=O)c3Cl)C2)CC1)c1ccc(F)cc1` [P-0472, (R)-1-(5-chloro-6-oxo-1,6-dihydropyridazin-4-yl)pyrrolidin-3-yl (1-(2-(4-fluorophenyl)-2-methylpropanoyl)piperidin-4-yl)carbamate], the IC50 (at human CD73; in test [1]) was 0.001 to 10 µM each time.

`N#Cc1c(N2CC[C@@H](OC(=O)NC3CCCCC3)C2)cnn(CCO)c1=O` [P-0473, (R)-1-(5-cyano-1-(2-hydroxyethyl)-6-oxo-1,6-dihydropyridazin-4-yl)pyrrolidin-3-yl cyclohexylcarbamate]: the half-inhibitory concentration (IC50) (at human CD73; in test [1]) was 0.001 to 10 µM each time.

On to `O=C(NC1CCC(F)(F)CC1)O[C@H]1CN(c2cnn(CCO)c(=O)c2Cl)C[C@@H]1F` [P-0474, (3S,4S)-1-(5-chloro-1-(2-hydroxyethyl)-6-oxo-1,6-dihydropyridazin-4-yl)-4-fluoropyrrolidin-3-yl (4,4-difluorocyclohexyl)carbamate], for which the half-inhibitory concentration (IC50) (at human CD73; in test [1]) was 0.001 to 10 µM each time.

`O=C(NC1CCCC1)O[C@H]1CN(c2cnn(CCO)c(=O)c2Cl)C[C@@H]1F` [P-0475, (3S,4S)-1-(5-chloro-1-(2-hydroxyethyl)-6-oxo-1,6-dihydropyridazin-4-yl)-4-fluoropyrrolidin-3-yl cyclopentylcarbamate]: the IC50 (on human CD73; in test [1]) was 0.001 to 10 µM throughout.

As to `N#CC1(NC(=O)O[C@@H]2CCN(c3cnn(CCO)c(=O)c3Cl)C2)CCCC1` [P-0476, (R)-1-(5-chloro-1-(2-hydroxyethyl)-6-oxo-1,6-dihydropyridazin-4-yl)pyrrolidin-3-yl (1-cyanocyclopentyl)carbamate], the IC50 (on human CD73; in test [1]) was 0.001 to 10 µM each time.

Take `O=C(N[C@@H]1CCC[C@H]1O)O[C@@H]1CCN(c2cnn(CCO)c(=O)c2Cl)C1` [P-0477, (R)-1-(5-chloro-1-(2-hydroxyethyl)-6-oxo-1,6-dihydropyridazin-4-yl)pyrrolidin-3-yl ((1R,2R)-2-hydroxycyclopentyl)carbamate]: the half-inhibitory concentration (IC50) (on human CD73; in test [1]) was 0.001 to 10 µM throughout.

Take `O=C(N[C@@H]1CCC[C@@H]1C(F)(F)F)O[C@@H]1CCN(c2cnn(CCO)c(=O)c2Cl)C1` [P-0478, (R)-1-(5-chloro-1-(2-hydroxyethyl)-6-oxo-1,6-dihydropyridazin-4-yl)pyrrolidin-3-yl ((1R,2S)-2-(trifluoromethyl)cyclopentyl) carbamate]: the IC50 (on human CD73; in test [1]) was 0.001 to 10 µM throughout.

Consider `O=C(NC1CCCC(F)(F)C1)O[C@@H]1CCN(c2cnn(CCO)c(=O)c2Cl)C1` (stereo partly drawn) [P-0479, (R)-1-(5-chloro-1-(2-hydroxyethyl)-6-oxo-1,6-dihydropyridazin-4-yl)pyrrolidin-3-yl (3,3-difluorocyclohexyl)carbamate], for which the half-inhibitory concentration (IC50) (on human CD73; in test [1]) was 0.001 to 10 µM in each case.

As to `O=C(NC1(C2CC2)CC1)O[C@@H]1CCN(c2cnn(CCO)c(=O)c2Cl)C1` [P-0480, (R)-1-(5-chloro-1-(2-hydroxyethyl)-6-oxo-1,6-dihydropyridazin-4-yl)pyrrolidin-3-yl [1,1′-bi(cyclopropan)]-1-ylcarbamate], the IC50 (at human CD73; in test [1]) was 0.001 to 10 µM in each case.

Consider `O=C(N[C@@H]1CCC[C@@H]1O)O[C@@H]1CCN(c2cn[nH]c(=O)c2Cl)C1` [P-0481, (R)-1-(5-chloro-6-oxo-1,6-dihydropyridazin-4-yl)pyrrolidin-3-yl ((1R,2S)-2-hydroxycyclopentyl)carbamate], for which the 50% inhibitory concentration (IC50) (at human CD73; in test [1]) was 0.001 to 10 µM in each case.

In the case of `O=C(N[C@H]1CC[C@@H](NC2CCC(F)(F)CC2)CC1)O[C@@H]1CCN(c2cn[nH]c(=O)c2Cl)C1` [P-0482, (R)-1-(5-chloro-6-oxo-1,6-dihydropyridazin-4-yl)pyrrolidin-3-yl ((1s,4S)-4-((4,4-difluorocyclohexyl)amino)cyclohexyl)carbamate], the IC50 (on human CD73; in test [1]) was 0.001 to 10 µM in each case.

Consider `N#Cc1c(N2C[C@H](OC(=O)NC3CCC(F)(F)CC3)[C@@H](F)C2)cn[nH]c1=O` [P-0483, (3S,4S)-1-(5-cyano-6-oxo-1,6-dihydropyridazin-4-yl)-4-fluoropyrrolidin-3-yl (4,4-difluorocyclohexyl)carbamate], for which the IC50 (at human CD73; in test [1]) was 0.001 to 10 µM in each case.

Regarding `N#Cc1c(N2C[C@H](OC(=O)NC3CCCC3)[C@@H](F)C2)cn[nH]c1=O` [P-0484, (3S,4S)-1-(5-cyano-6-oxo-1,6-dihydropyridazin-4-yl)-4-fluoropyrrolidin-3-yl cyclopentylcarbamate], the IC50 (at human CD73; in test [1]) was 0.001 to 10 µM in each case.

`N#Cc1c(N2C[C@H](OC(=O)NC3CCC(F)(F)CC3)[C@@H](F)C2)cnn(CCO)c1=O` [P-0485, (3S,4S)-1-(5-cyano-1-(2-hydroxyethyl)-6-oxo-1,6-dihydropyridazin-4-yl)-4-fluoropyrrolidin-3-yl (4,4-difluorocyclohexyl)carbamate]: the IC50 (at human CD73; in test [1]) was 0.001 to 10 µM throughout.

For the compound `N#Cc1c(N2C[C@H](OC(=O)NC3CCCC3)[C@@H](F)C2)cnn(CCO)c1=O` [P-0486, (3S,4S)-1-(5-cyano-1-(2-hydroxyethyl)-6-oxo-1,6-dihydropyridazin-4-yl)-4-fluoropyrrolidin-3-yl cyclopentylcarbamate], the IC50 (on human CD73; in test [1]) was 0.001 to 10 µM in each case.

As for `O=C(N[C@H]1CC[C@@H](NC2CCOCC2)CC1)O[C@@H]1CCN(c2cn[nH]c(=O)c2Cl)C1` [P-0487, (R)-1-(5-chloro-6-oxo-1,6-dihydropyridazin-4-yl)pyrrolidin-3-yl ((1s,4S)-4-((tetrahydro-2H-pyran-4-yl)amino)cyclohexyl)carbamate], the IC50 (on human CD73; in test [1]) was 0.001 to 10 µM throughout.
